# Assay results reported in patent US11866430B2, “Naphthyridinone compounds useful as T cell activators” (priority 2018, dated 2024).
# Assays:
# human DGKα = human DGKα (Homo sapiens (Human), UniProt P23743); test: DGKα LIPGLO assay (extruded liposome substrate); assay type: biochemical
# Summary of the method: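 Human full-length DGKα, His-tagged and produced in Sf9 cells, assayed at 20 nM (4× stock) on extruded liposomes of PS, 0.25 mM DAG and 2.75 mM PC, preincubated 10 min. Reaction started with 300 μM ATP (stock) and ran 1 h in MOPS pH 7.5/MgCl2/CaCl2/DTT buffer.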
# human DGKζ = human DGKζ (Homo sapiens (Human), UniProt Q13574); test: DGKζ LIPGLO assay (extruded liposome substrate); assay type: biochemical; settings: extruded liposome substrate; read-out: DGKζ LIPGLO IC50
# Summary of the method: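 Sf9-derived DGKζ was premixed 10 min with PC/DAG/PS liposomes (100 nm extruded) in MOPS pH 7.5 buffer containing NaCl, MgCl2, CaCl2 and DTT.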
# naïve human CD8 T cells = test: cells; settings: Homo sapiens, T-cell, read-out: HuCD8 INFG Normalized EC50, anti-CD3 plus anti-CD28 as baseline; 3 μM Example 40 co-stimulation as 100% activation
# Experimental: Frozen naïve human CD8 T cells were thawed in ATM-V media, incubated for 2 h in 37° C., and counted. The 384-well tissue culture plate was coated overnight at 4° C. with 20 μl anti-human CD3 at 0.05 μg/mL in PBS, which was removed off the plate before 40,000 cells per 40 microliters CD8 T cells with 0.1 μg/mL soluble anti-human CD28 were added to each well. The compounds were transferred using an Echo liquid handler to the cell plate immediately after the cells were plated. After 20 h incubation at 37° C. incubator, 3 microliters per well supernatants transferred into a new 384-well white assay plate for cytokine measurement.
# Interferon-γ (IFN-γ) was quantitated using the AlphaLISA kit (Cat #AL217) as described by the manufacturer manual (Perkin Elmer). The counts from each well were converted to IFN-γ concentration […].
# Sequence of human DGKα (P23743 other isoform, or with tags, fused parts or gaps): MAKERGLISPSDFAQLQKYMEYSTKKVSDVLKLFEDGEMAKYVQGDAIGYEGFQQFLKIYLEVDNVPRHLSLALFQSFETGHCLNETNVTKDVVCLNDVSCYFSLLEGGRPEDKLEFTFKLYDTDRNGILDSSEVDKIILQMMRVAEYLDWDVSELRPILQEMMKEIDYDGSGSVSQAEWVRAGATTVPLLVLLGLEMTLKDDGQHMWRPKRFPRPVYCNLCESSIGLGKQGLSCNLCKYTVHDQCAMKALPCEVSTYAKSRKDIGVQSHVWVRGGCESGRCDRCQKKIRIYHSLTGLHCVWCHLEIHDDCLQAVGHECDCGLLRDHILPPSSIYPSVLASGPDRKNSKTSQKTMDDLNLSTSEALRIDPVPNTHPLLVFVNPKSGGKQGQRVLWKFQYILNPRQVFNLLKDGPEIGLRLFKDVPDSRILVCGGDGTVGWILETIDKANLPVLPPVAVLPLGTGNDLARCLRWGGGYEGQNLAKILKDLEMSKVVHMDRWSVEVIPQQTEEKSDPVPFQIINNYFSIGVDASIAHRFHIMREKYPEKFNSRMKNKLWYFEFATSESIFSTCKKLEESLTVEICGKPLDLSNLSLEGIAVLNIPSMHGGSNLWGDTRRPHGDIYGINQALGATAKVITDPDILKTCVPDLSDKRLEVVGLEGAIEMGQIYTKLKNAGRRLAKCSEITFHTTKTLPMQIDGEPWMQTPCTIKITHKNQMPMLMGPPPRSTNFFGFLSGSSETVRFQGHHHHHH
# Sequence of human DGKζ (Q13574 other isoform, or with tags, fused parts or gaps): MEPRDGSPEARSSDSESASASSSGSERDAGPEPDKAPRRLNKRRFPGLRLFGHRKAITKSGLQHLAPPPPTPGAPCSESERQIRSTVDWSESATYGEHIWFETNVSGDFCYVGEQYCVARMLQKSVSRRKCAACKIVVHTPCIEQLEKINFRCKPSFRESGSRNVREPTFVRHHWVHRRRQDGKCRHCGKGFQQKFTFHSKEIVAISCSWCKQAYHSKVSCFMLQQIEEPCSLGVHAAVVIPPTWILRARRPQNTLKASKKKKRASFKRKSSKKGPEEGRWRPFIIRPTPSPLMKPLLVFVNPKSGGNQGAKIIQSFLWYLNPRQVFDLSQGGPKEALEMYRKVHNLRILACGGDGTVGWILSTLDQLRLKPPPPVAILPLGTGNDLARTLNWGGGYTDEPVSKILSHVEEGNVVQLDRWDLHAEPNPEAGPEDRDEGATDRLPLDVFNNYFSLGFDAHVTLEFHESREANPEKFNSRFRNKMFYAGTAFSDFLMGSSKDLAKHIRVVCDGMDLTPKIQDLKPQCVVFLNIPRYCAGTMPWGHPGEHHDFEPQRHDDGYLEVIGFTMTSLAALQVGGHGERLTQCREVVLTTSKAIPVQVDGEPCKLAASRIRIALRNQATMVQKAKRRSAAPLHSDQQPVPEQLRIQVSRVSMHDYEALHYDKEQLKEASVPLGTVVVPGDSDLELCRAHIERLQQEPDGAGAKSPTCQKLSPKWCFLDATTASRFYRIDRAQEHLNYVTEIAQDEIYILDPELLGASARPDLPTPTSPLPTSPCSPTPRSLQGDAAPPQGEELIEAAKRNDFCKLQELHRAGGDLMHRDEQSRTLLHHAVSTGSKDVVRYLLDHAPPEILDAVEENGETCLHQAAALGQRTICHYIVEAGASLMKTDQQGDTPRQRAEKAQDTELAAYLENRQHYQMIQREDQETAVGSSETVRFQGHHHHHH
SMILES,IC50 (human DGKα),IC50 (human DGKζ),EC50 (naïve human CD8 T cells)
"Cc1ccc2c(n1)c(N1CCN(C3CCOc4ccccc43)CC1)c(C#N)c(=O)n2C (stereo not drawn) [Example 253, 4-[4-(3,4-dihydro-2H-1-benzopyran-4-yl)piperazin-1-yl]-1,6-dimethyl-2-oxo-1,2-dihydro-1,5-naphthyridine-3-carbonitrile]",40 µM,7.4 µM,2.51 µM
"Cc1ccc2c(n1)c(N1CCN(C(c3ccc(F)cc3)c3ccccn3)CC1)c(C#N)c(=O)n2C (stereo not drawn) [Example 256, 4-{4-[(4-fluorophenyl)(pyridin-2-yl)methyl]piperazin-1-yl}-1,6-dimethyl-2-oxo-1,2-dihydro-1,5-naphthyridine-3-carbonitrile]",2.7 µM,10 µM,0.24 µM
"Cn1c(=O)c(C#N)c(N2CCN(C(c3ccc(Cl)cc3)c3ccc(Cl)cc3)CC2)c2nc(Br)ccc21 [Example 393, 4-{4-[bis(4-chlorophenyl)methyl]piperazin-1-yl}-6-bromo-1-methyl-2-oxo-1,2-dihydro-1,5-naphthyridine-3-carbonitrile]",9 µM,> 240 µM,0.17 µM
"Cn1c(=O)c(C#N)c(N2CCN(C(c3ccc(Cl)cc3)c3ccc(Cl)cc3)CC2)c2nc(C#N)ccc21 [Example 394, 8-{4-[bis(4-chlorophenyl)methyl]piperazin-1-yl}-5-methyl-6-oxo-5,6-dihydro-1,5-naphthyridine-2,7-dicarbonitrile]",3.9 µM,1.2 µM,0.01 µM
"COc1ccc2c(n1)c(N1CCN(C(c3ccc(Cl)cc3)c3ccc(Cl)cc3)CC1)c(C#N)c(=O)n2C [Example 395, 4-{4-[bis(4-chlorophenyl)methyl]piperazin-1-yl}-6-methoxy-1-methy-2-oxo-1,2-dihydro-1,5-naphthyridine-3-carbonitrile]",14 µM,3 µM,0.09 µM
"COc1ccc2c(n1)c(N1CCN(C(c3ccc(F)cc3)c3cccnc3OC)CC1)c(C#N)c(=O)n2C (stereo not drawn) [Example 396, 4-{4-[(4-fluorophenyl)(2-methoxypyridin-3-yl)methyl]piperazin-1-yl}-6-methoxy-1-methyl-2-oxo-1,2-dihydro-1,5-naphthyridine-3-carbonitrile]",21 µM,5.8 µM,2.66 µM
"COc1ccc2c(n1)c(N1CCN(C(c3ccc(F)cc3)c3ncccc3OC)CC1)c(C#N)c(=O)n2C (stereo not drawn) [Example 397, 4-{4-[(4-fluorophenyl)(3-methoxypyridin-2-yl)methyl]piperazin-1-yl}-6-methoxy-1-methyl-2-oxo-1,2-dihydro-1,5-naphthyridine-3-carbonitrile]",16 µM,13 µM,4.47 µM
"Cn1c(=O)c(C#N)c(N2CCN(C(c3ccc(F)cc3)c3ccccn3)CC2)c2nc(C#N)ccc21 (stereo not drawn) [Example 400, 8-{4-[(4-fluorophenyl)(pyridin-2-yl)methyl]piperazin-1-yl}-5-methyl-6-oxo-5,6-dihydro-1,5-naphthyridine-2,7-dicarbonitrile]",5.4 µM,2.1 µM,0.05 µM
"COc1ccc2c(n1)c(N1CCN(C(c3ncccn3)c3ccc(F)cc3OC)CC1)c(C#N)c(=O)n2C (stereo not drawn) [Example 401, 4-{4-[(4-fluoro-2-methoxyphenyl)(pyrimidin-2-yl)methyl]piperazin-1-yl}-6-methoxy-1-methyl-2-oxo-1,2-dihydro-1,5-naphthyridine-3-carbonitrile]",81 µM,7.6 µM,10 µM
"COc1ccc2c(n1)c(N1CCN(C(c3ccc(F)cc3OC)c3ccc(F)cc3OC)CC1)c(C#N)c(=O)n2C [Example 402, 4-{4-[bis(4-fluoro-2-methoxyphenyl)methyl]piperazin-1-yl}-6-methoxy-1-methyl-2-oxo-1,2-dihydro-1,5-naphthyridine-3-carbonitrile]",160 µM,3.5 µM,1.78 µM
"COc1ccc2c(n1)c(N1CCN(C(c3ccc(F)cc3)c3ccccn3)CC1)c(C#N)c(=O)n2C (stereo not drawn) [Example 403, 4-{4-[(4-fluorophenyl)(pyridin-2-yl)methyl]piperazin-1-yl}-6-methoxy-1-methyl-2-oxo-1,2-dihydro-1,5-naphthyridine-3-carbonitrile]",26 µM,5.7 µM,1.49 µM
"COc1cccnc1C(c1ccc(F)cc1)N1CCN(c2c(C#N)c(=O)n(C)c3ccc(C#N)nc23)CC1 (stereo not drawn) [Example 410, 8-{4-[(4-fluorophenyl)(3-methoxypyridin-2-yl)methyl]piperazin-1-yl}-5-methyl-6-oxo-5,6-dihydro-1,5-naphthyridine-2,7-dicarbonitrile]",5.4 µM,2.2 µM,0.09 µM
"Cn1c(=O)c(C#N)c(N2CCN(C(c3ccccc3)c3ccc(F)cc3)CC2)c2nc(C#N)ccc21 (stereo not drawn) [Example 411, 8-{4-[(4-fluorophenyl)(phenyl)methyl]piperazin-1-yl}-5-methyl-6-oxo-5,6-dihydro-1,5-naphthyridine-2,7-dicarbonitrile]",4.9 µM,1.4 µM,0.02 µM
"Cn1c(=O)c(C#N)c(N2CCN([C@@H](c3ccccc3)c3ccc(Cl)cc3)CC2)c2nc(C#N)ccc21 [Example 414, 8-{4-[(S)-(4-chlorophenyl)(phenyl)methyl]piperazin-1-yl}-5-methyl-6-oxo-5,6-dihydro-1,5-naphthyridine-2,7-dicarbonitrile]",9 µM,1.5 µM,0.16 µM
"COc1cc(C)ccc1C(c1ccc(F)cc1)N1CCN(c2c([N+](=O)[O-])c(=O)n(C)c3ccc(C#N)nc23)CC1 (stereo not drawn) [Example 416, 8-{4-[(4-fluorophenyl)(2-methoxy-4-methylphenyl)methyl]piperazin-1-yl}-5-methyl-7-nitro-6-oxo-5,6-dihydro-1,5-naphthyridine-2-carbonitrile]",4.8 µM,0.91 µM,0.03 µM
"Cn1c(=O)cc(N2CCN(C(c3ccc(F)cc3)c3ccc(F)cc3)CC2)c2nc(C#N)ccc21 [Example 432, 8-{4-[bis(4-fluorophenyl)methyl]piperazin-1-yl}-5-methyl-6-oxo-5,6-dihydro-1,5-naphthyridine-2-carbonitrile]",> 240 µM,5.4 µM,0.06 µM
